Assays:
DGK [1] = experiment: Lysis of EM-meso-luc cells by antigen-exposed human mesoCAR T cells with or without DGK inhibitors; type: cell-based; settings: 5 μg/mL inhibitor, 18 hours, after 96 hours exposure to EM-meso
Method: Primary human T cells were obtained and mock infected or transduced with lentivirus expressing mesoCAR as previously described (Moon et al., 2011, Clin Cancer Res 17:4719-30). A total of 5×10^6 T cells were subsequently added to 24-well plates that had been seeded with 5×10^5 cells either from the epithelial mesothelioma (EM) human mesothelioma line or a stable derivative cell line, EM-meso, engineered to express high levels of mesothelin, in a 24-well dish. […] Cells were assessed for viability using Trypan blue, and 1×10^5 live T cells were cocultured with 5×10^3 EM-meso-luc cells expressing luciferase in 96-well plates in the presence or absence of the DGK inhibitors DGK1 (R59022) or DGK2 (R59949; Sigma) at 5 μg/mL. After 18 hours, remaining tumor cells were washed and lysed, and luminescence was evaluated. Cell lysate determinations were corroborated with visual estimate of remaining numbers of tumor cells.

DGK [2] = experiment: DGK inhibitor effect on killing activity of human CAR-TIL; type: cell-based; settings: preliminary observations
Method: In addition, experiments were conducted to mimic potential human trials in which mice with established tumors were injected intravenously with 10^7 wild type T cells or the three types of DGK knockout T cells. […] Preliminary relevant observations in human CAR T cells have been recorded using a commercially available DGK inhibitor (R59022). Human mesothelin-CAR T cells mixed with human mesothelin tumor cells (at a 1:1 ratio) were injected into immunodeficient mice. The tumor growth was slowed, but not prevented by the CAR-T cells. After 2-3 weeks, tumors were harvested and the human CAR-T cells were purified. When these T cells (Tumor infiltrating lymphocytes, or TILs) are allowed to react with fresh tumors, they can kill only 5-10% of the tumor cells showing they are hypofunctional compared to freshly made CAR-T cells which kill 70% of tumor cells (FIG. 15).

DGK [3] = settings: freshly isolated human TIL, renal cell cancers; cited from earlier work

Cc1nc2sccn2c(=O)c1CCN1CCC(=C(c2ccccc2)c2ccc(F)cc2)CC1 [R59022]
cytotoxicity of mesothelin-exposed mesoCAR T cells (DGK [1]): reverse the impaired cytotoxicity | function (killing activity) of human CAR-TIL (DGK [2]): augments function | TIL function (DGK [3]): improve TIL function

O=c1c2ccccc2[nH]c(=S)n1CCN1CCC(=C(c2ccc(F)cc2)c2ccc(F)cc2)CC1 [R59949]
cytotoxicity of mesothelin-exposed mesoCAR T cells (DGK [1]): reverse the impaired cytotoxicity

Reference: patent US11931380B2, “Inhibition of diacylglycerol kinase to augment adoptive T cell transfer” (THE TRUSTEES OF THE UNIVERSITY OF PENNSYLVANIA, priority 2012, dated 2024)
